A melting point compilation (Tetko et al.; mined from patent text by program, amines drawn as free bases though some values may be those of a salt)

`COC(=O)CCCCCc1nn(-c2ccc([N+](=O)[O-])cc2)c2c1CCCC2` gave a melting point of 60 to 61 °C. Compound `CONC(=O)c1ccccc1SCc1ccccc1` has a melting point of 100 to 105 °C. Work on `C#CCOc1ccc(OCC2OC2(C)C)cc1` (stereo unspecified) yielded a melting point of 72 to 73 °C. Work on `CC(C)(C)c1nc(C(=O)c2ncc[nH]2)nc(C(C)(C)C)c1O` yielded a melting point of 217 to 220 °C. In the case of `O=C(Nc1ccc(O)cc1)c1ccc(O)cc1`, the melting point is reported as 180 to 185 °C. `C=C(C(=O)c1c(OC)ccc(-c2cccs2)c1OC)c1ccc(C(=O)O)cc1` gave a melting point of 193 to 195 °C. In the case of `Cc1ccc2oc(N(C=O)[C@@H](Cc3ccccn3)c3ncc(-c4ccc(N5CCOCC5)cc4)n3C)cc2c1`, the melting point is reported as 125 to 127 °C. `CCOC(C)c1cc2c(=O)n(NS(C)(=O)=O)c(=O)[nH]c2cc1C(F)(F)F` (stereo unspecified) showed a melting point of 105 to 112 °C. Work on `CCCc1ccc(-c2nc(C)c(C(C)=NNC(=N)N)s2)cc1` yielded a melting point of 256 to 257 °C. Work on `Cc1nnc2n1-c1sccc1C(c1ccccc1Cl)=NC2` yielded a melting point of 221 to 223 °C. For `CCNC(=O)c1occc1[Si](C)(C)C`, the melting point was 69 to 72 °C. `CCOC(=O)/C=C/c1cc(-c2c(CC(=O)Nc3ccc(Cl)cc3C(F)(F)F)c(=O)oc3cc(Cl)c(C)cc23)ccc1F` gave a melting point of 160 to 162 °C. With `O=C(O)Cc1ccc2noc(-c3ccccc3)c2c1` the melting point was 173 to 174 °C. For `O=C1C(=O)c2ccccc2C2=C1SCC1(CCCCC1)O2`, the melting point was 194 to 195 °C. `CCOC(=O)c1c(CC)nn2c(-c3ccccc3)ccnc12` showed a melting point of 83 to 84 °C. In the case of `O=C(COc1cccc(CCNS(=O)(=O)c2ccc(Cl)cc2)c1)N1CCOCC1`, the melting point is reported as 110 to 111 °C. With `COc1cc2ncnc(N3CCN(C(=S)NCc4ccc(Br)cc4)CC3)c2cc1OC` the melting point was 217 to 218 °C. Compound `Cc1nnc(OC(=O)NC(C)(C)C)n1-c1ccc(Cl)cn1` has a melting point of 132 to 134 °C. With `O=C1CCC(N2C(=O)c3ccc(CNC(=O)C4CC4)cc3C2=O)C(=O)N1` (stereo unspecified) the melting point was 163 to 165 °C. For `COC(=O)C(O)C(NC(=O)OCc1ccccc1)C(=O)OC` (stereo unspecified), the melting point was 129 °C. Work on `COc1ccc(NC(C)=O)c(OC)c1-c1ccc(C[C@H](NC(=O)c2c(Cl)cccc2Cl)C(=O)O)cc1` yielded a melting point of 244 to 245 °C. With `O=C(O)c1cccc(C23CC4CC(CC(C4)C2)C3)c1` the melting point was 247 to 249 °C. Compound `CCCCOc1cc(C)c(NC(=O)C(C)Br)c(C)c1` (stereo unspecified) has a melting point of 132 to 134 °C. `CCCCCCCCCCSCCCCCCCCCCNC(=O)OCCN1CCOCC1` showed a melting point of 91 °C. Work on `CCCSc1nc(N)n(-c2nnc(-c3ccccc3O)s2)n1` yielded a melting point of 195 to 198 °C. `C/C(=C\c1ccc(OC(C)C)cc1Oc1ncc(C(F)(F)F)cc1Cl)C(=O)NS(=O)(=O)NCCc1ccccc1` showed a melting point of 147 to 148 °C. In the case of `CCCCC(=NCC(=O)OCC)c1cc(Cl)ccc1N`, the melting point is reported as 96 to 97 °C. `CC(=NOCCOc1ccc(CC2SC(=O)NC2=O)cc1)c1ccc(OCc2ccccc2)nc1` (stereo unspecified) showed a melting point of 160 to 161 °C. With `O=S(=O)(NCc1ccc(Cl)cc1)c1cc(Cl)c2cccnc2c1O` the melting point was 189 to 190 °C. Work on `CCOC(=O)C1=C(COCc2nnn(CCNS(C)(=O)=O)n2)NC(C)=C(C(=O)OC)C1c1cccc(Cl)c1Cl` (stereo unspecified) yielded a melting point of 245 to 247 °C. With `CCOC(=O)c1c(C)nn(-c2ccccn2)c1N` the melting point was 80 to 81 °C. Compound `COC(=O)C(Oc1cc(OCc2ccccc2)ccc1C#N)c1ccccc1C` (racemic) has a melting point of 134 to 136 °C. In the case of `O=C1NCN(c2ccc(Cl)cc2)C12CCN(Cc1ccnc(-c3ccc(Cl)cc3)c1)CC2`, the melting point is reported as 223 to 225 °C. For `O=P(CN=Cc1ccccc1Cl)(c1ccccc1)c1ccccc1`, the melting point was 89 °C. `Cn1ncc2cc(NC(=O)Nc3ccc(C(F)(F)F)cc3)ccc21` gave a melting point of 252 to 254 °C. `CCCCCCCCCCCCS(=O)(=O)CCOc1ccc(C/C=C(\OC(C)=O)C(F)(F)F)cc1` showed a melting point of 48 to 49 °C. For `C[C@]12C/C(=C\F)[C@H]3[C@@H](CCC4=CC(=O)CC[C@@H]43)[C@@H]1CCC2=O`, the melting point was 208 to 212 °C. In the case of `CCOc1ccc(-c2ccc(Cl)nn2)c(OCC(O)CNC(C)(C)C)c1` (stereo unspecified), the melting point is reported as 115 to 117 °C. For `CC(=O)Nc1ccc(Cl)c2c1C(=O)C(NC(C)=O)CN2C(C)=O` (stereo unspecified), the melting point was 206 to 210 °C. Compound `CCOC(=O)CC(=O)c1ccc(Cl)c(C)c1` has a melting point of 50 to 51 °C. In the case of `CCNc1nc2ccc(OC(F)(F)F)cc2s1`, the melting point is reported as 135 °C. In the case of `CCCCCCCCCCCCCCCSCCO`, the melting point is reported as 44 to 46 °C. `O=c1[nH]c2cc(Cl)cc(Cl)c2c(=O)n1-c1ccccc1` gave a melting point of 314 to 319 °C. Work on `Nc1c(SC(F)(F)F)c(C(=O)NC2CC2)nn1-c1c(Cl)cc(C(F)(F)F)cc1Cl` yielded a melting point of 193 °C. With `CC1(C)CCC(C)(C)c2cc(-c3cc(-c4ccc(C(=O)O)cc4)ccc3-c3ccccc3)c(O)cc21` the melting point was 145 °C. `O=C(CSc1ncccn1)C12CC3CC(CC(C3)C1)C2` showed a melting point of 100 to 101 °C. For `c1ccc2c(c1)CC(CN1CCC(c3c[nH]c4cc5c(cc34)OCO5)CC1)C2`, the melting point was 187 to 188 °C. Compound `O=C(CCl)CCCCc1ccc(CCCCC(=O)CCl)cc1` has a melting point of 86 to 87 °C. In the case of `Cc1c(CC(=O)O)c(=O)oc2cc(O)c(O)c([N+](=O)[O-])c12`, the melting point is reported as > 350 °C. In the case of `CCc1nc(N)nc(NC(CC)COCc2ccc(F)cc2)n1` (stereo unspecified), the melting point is reported as 96 °C. Compound `CCC(=CC(COC(N)=O)=NO)C(C)[N+](=O)[O-]` (stereo unspecified) has a melting point of 69 to 72 °C. With `N#Cc1ccc(N(Cc2ccc(OCc3ccccc3)cc2)n2cnnc2)cc1-c1ccoc1` the melting point was 155 to 156 °C. In the case of `CCOC(=O)C1(C(=O)N(Cc2ccccc2)Cc2ccccc2)CC(=O)N(C(C)c2ccccc2)C1` (stereo unspecified), the melting point is reported as 135 to 137 °C. In the case of `CC1(c2ccc(O)c([N+](=O)[O-])c2)C(=O)Nc2cc(Cl)cc(Cl)c2C1=O` (stereo unspecified), the melting point is reported as 239 to 240 °C. For `CC(C)(C)c1cc(C(C)(C)C)c(O)c(S(=O)(=O)Nc2ccc([N+](=O)[O-])cc2Cl)c1`, the melting point was 158 to 161 °C. In the case of `C[C@H]1[C@H](O)[C@H](O)C(S(=O)(=O)c2ccccc2)=C[C@H](C)[C@H]1O[Si](C)(C)C(C)(C)C`, the melting point is reported as 117 to 119 °C. For `O=C(Cn1c(=O)[nH]c2ccccc21)c1c(-c2ccccc2)nc2ccccn12`, the melting point was 233 to 235 °C. Work on `CSC(SC)=C1C(=O)OC(C)(C)OC1=O` yielded a melting point of 114 to 118 °C. Work on `OCC#Cc1cccnc1` yielded a melting point of 99 to 100 °C. In the case of `CC1(C)Nc2ccccc2-n2cnc(-c3noc(C4CC4)n3)c21`, the melting point is reported as 166 to 169 °C. `Oc1ccc([C@H]2OCCN3[C@@H](CCc4ccccc4)CC[C@H]23)cc1` (racemic) gave a melting point of 170 to 172 °C. For `CCCCNC(=O)Nc1ccc(N2CCCC2)cc1C(=O)NCC1CCN(C(c2ccccc2)c2ccccc2)CC1`, the melting point was 200 to 202 °C. `COc1cc(OC)cc(C(=CC#N)c2ccc(OC)c([N+](=O)[O-])c2)c1` showed a melting point of 122 to 124 °C. For `COC(N)=CC(=NC#N)OC`, the melting point was 116 to 121 °C. With `CCCc1c(OCCCCCOc2ccc(Cl)cc2CCC(=O)O)ccc2c1OCCC2=O` the melting point was 101 to 103 °C. In the case of `O=C(O)c1ccc2nc(S)[nH]c2c1`, the melting point is reported as > 250 °C. With `Oc1cc(OCc2ccccc2)cc(OCc2ccccc2)c1C[C@H](O)[C@@H](O)c1ccccc1` the melting point was 121 to 123 °C. Compound `CCOC(=O)Cn1c(-c2ccc(Cl)c(Cl)c2)nc2cccnc21` has a melting point of 141 to 142 °C. Compound `O=C(O)[C@H](Cc1ccccc1)NS(=O)(=O)c1ccc(N2CCC(Cc3ccccc3)CC2)cc1` has a melting point of 164 to 165 °C. For `COc1ccc(C2(O)OC(=O)C(c3ccc4nsnc4c3)=C2Cc2cc(OC)c(OC3CCCC3)c(OC)c2)cc1` (stereo unspecified), the melting point was 40 to 41 °C. For `O=c1ccn(CCO)c(C(O)c2cccnc2)c1OCc1ccccc1` (stereo unspecified), the melting point was 182 to 183 °C.
